The record followed here is ChEMBL document CHEMBL1201862, “PubChem BioAssay data set” (2004).

Active and inactive are the calls of the source.

Usually IC50 stands for the concentration needed to halve the response being measured. As a reminder, the Ki is a dissociation constant, usually derived from enzyme kinetics or from competition with a known ligand. In general, EC50 refers to the concentration at which the effect is half-maximal.

One experiment deals with SUMO-activating enzyme (Homo sapiens, UniProt Q9UBT2). Put plainly: inhibitors of in vitro SUMOylation cascade, primary screen, biochemical, HTRF, uHTS (AID 2006). In kind it is protein-complex assay. For orientation: In TR-FRET formats the signal depends on donor and acceptor labels being close together.
Experiment [1] concerns the target Serine/threonine-protein phosphatase PP1-alpha catalytic subunit (Homo sapiens, UniProt P62136). The experiment is described as follows: PP1 phosphatase inhibitors, dose response, biochemical, fluorescence (AID 2403).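 Further: phosphatase turnover of OMFP into fluorescent 3-O-methylfluorescein.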
The next experiment deals with T1, Caspase-3 (Homo sapiens, UniProt P42574).
T1 sequence (P42574 whole entry): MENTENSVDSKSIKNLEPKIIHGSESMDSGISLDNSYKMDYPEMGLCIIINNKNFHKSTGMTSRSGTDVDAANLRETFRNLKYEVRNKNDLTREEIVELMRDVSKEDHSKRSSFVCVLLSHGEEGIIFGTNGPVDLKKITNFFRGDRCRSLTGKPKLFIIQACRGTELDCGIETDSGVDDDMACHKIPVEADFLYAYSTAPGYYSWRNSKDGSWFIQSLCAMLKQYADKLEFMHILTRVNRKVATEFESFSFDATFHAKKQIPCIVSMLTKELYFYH
The experiment is described as follows: Dose-response confirmation of uHTS inhibitor hits of Sentrin-Specific Protease 8 in a Caspase-3 Fluorescence assay. The class given is functional.

In experiment [2] the target is Fibroblast growth factor receptor 1 (Homo sapiens, UniProt P11362). The class given is functional.
The target of experiment [3] is High affinity nerve growth factor receptor (Homo sapiens, UniProt P04629). The class given is functional.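 Further: NTRK1 tested as one member of a kinome-wide profiling panel.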
Experiment [4] addresses Platelet-derived growth factor receptor beta (Homo sapiens, UniProt P09619). The class given is functional.
The target in experiment [5] is Tyrosine-protein kinase ABL1 (Homo sapiens, UniProt P00519). The class given is functional.
The target in a further experiment is Aurora kinase B (Homo sapiens, UniProt Q96GD4). The class given is functional.
For experiment [6], the target named is Dual specificity tyrosine-phosphorylation-regulated kinase 1A (Homo sapiens, UniProt Q13627). The class given is functional.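 Further: measured against DYRK1A as one member of a broad kinome profiling panel.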
The target in experiment [7] is T2, RNA-binding protein pos-1 (Caenorhabditis elegans, UniProt G5EF15).
T2 sequence (G5EF15 whole entry): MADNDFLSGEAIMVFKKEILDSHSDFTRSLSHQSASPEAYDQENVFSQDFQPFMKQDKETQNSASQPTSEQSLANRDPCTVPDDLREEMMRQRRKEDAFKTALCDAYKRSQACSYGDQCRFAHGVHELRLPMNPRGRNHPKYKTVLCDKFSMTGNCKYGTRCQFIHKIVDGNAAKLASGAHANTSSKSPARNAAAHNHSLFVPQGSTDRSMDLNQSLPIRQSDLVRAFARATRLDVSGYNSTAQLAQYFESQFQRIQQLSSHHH
Put plainly: inhibitors of POS-1/mex-3 RNA binding, dose response, biochemical, fluorescence polarization (AID 1964).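 Further: purified POS-1 fused to maltose binding protein made in E. coli; potency of compounds blocking POS-1 binding to fluorescent RNA.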

For experiment [8], the target named is T3, Zinc finger protein mex-5 (Caenorhabditis elegans, UniProt Q9XUB2).
T3 sequence (Q9XUB2 whole entry): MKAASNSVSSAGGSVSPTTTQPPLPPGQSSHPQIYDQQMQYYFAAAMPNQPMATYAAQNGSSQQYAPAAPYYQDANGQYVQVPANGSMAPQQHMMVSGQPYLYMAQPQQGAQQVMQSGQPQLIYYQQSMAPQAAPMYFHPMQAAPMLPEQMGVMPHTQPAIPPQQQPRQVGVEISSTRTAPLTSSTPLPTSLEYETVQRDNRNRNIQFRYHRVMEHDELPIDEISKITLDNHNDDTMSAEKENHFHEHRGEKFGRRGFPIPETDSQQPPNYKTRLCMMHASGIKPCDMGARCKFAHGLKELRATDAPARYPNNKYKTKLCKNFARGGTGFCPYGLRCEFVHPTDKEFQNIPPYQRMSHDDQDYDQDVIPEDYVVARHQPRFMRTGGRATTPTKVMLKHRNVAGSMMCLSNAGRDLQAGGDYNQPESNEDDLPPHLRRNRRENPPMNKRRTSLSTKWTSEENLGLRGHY
Put plainly: MEX-5/TCR-2 RNA interaction inhibitors, dose response, biochemical, C. elegans, fluorescence polarization (AID 1960).

The target in the next experiment is Large T antigen (Simian virus 40, UniProt P03070). The class given is functional, Betapolyomavirus macacae.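 Further: Confirmatory-stage PubChem screen for compounds that inhibit SV40 T antigen.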
Experiment [9] deals with T4, 1-phosphatidylinositol 4,5-bisphosphate phosphodiesterase beta-3 (Homo sapiens, UniProt Q01970).
T4 sequence (Q01970 whole entry): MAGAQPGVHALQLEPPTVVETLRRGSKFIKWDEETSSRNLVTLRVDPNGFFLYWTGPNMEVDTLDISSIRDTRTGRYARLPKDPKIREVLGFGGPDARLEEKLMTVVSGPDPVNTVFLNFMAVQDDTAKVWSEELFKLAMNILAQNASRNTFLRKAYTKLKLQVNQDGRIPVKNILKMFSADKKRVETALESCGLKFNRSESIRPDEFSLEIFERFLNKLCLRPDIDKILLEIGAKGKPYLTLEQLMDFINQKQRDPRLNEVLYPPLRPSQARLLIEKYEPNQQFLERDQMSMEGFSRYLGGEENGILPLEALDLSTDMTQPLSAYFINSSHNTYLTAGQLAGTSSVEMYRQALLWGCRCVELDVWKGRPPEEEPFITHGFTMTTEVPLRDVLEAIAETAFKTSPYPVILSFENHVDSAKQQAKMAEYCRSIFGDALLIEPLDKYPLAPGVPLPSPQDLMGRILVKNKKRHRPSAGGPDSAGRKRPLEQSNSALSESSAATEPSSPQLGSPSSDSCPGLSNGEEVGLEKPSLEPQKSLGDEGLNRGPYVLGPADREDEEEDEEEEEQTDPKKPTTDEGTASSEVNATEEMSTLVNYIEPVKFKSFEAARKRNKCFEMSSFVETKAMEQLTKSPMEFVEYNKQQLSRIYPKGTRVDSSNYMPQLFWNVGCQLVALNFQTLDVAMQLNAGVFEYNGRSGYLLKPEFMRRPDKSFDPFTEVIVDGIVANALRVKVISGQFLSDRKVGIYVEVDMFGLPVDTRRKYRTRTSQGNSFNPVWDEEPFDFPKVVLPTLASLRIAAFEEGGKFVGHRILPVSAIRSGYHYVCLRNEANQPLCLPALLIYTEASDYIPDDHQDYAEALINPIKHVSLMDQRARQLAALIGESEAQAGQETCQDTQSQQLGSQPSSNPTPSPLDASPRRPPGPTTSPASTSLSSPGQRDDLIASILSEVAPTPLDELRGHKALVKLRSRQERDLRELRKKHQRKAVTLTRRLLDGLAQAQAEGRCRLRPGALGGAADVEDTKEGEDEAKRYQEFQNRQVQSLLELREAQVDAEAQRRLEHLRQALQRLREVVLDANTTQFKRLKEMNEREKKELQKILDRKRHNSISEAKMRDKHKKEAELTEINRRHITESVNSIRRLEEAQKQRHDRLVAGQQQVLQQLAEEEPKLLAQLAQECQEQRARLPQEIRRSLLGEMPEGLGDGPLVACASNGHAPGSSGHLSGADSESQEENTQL
The experiment is described as follows: Fluorescence-based biochemical high throughput dose response assay to identify inhibitors of phospholipase C isozymes (PLC-B3).

Chain of High affinity nerve growth factor receptor (P04629 whole entry): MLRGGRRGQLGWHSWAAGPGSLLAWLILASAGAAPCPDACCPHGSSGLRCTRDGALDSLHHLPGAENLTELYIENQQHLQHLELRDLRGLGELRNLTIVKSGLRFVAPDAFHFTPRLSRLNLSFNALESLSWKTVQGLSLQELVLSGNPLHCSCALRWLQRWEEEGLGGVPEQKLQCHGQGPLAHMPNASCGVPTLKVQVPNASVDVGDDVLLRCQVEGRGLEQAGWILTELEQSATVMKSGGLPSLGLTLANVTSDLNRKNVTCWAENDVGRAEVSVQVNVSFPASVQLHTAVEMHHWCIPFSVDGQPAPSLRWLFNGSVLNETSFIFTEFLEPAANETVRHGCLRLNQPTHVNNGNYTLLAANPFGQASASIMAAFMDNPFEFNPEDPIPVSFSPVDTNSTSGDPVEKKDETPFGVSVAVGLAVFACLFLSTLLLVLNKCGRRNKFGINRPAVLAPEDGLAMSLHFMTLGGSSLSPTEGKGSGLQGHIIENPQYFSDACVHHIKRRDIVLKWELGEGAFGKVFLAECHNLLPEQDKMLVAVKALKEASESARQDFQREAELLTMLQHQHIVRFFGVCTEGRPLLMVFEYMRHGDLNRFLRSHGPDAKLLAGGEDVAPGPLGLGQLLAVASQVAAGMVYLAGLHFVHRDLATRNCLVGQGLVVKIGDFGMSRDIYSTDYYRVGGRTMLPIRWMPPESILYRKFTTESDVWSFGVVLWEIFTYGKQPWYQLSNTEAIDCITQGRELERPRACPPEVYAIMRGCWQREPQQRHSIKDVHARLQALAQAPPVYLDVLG
Chain of Tyrosine-protein kinase ABL1 (P00519 whole entry): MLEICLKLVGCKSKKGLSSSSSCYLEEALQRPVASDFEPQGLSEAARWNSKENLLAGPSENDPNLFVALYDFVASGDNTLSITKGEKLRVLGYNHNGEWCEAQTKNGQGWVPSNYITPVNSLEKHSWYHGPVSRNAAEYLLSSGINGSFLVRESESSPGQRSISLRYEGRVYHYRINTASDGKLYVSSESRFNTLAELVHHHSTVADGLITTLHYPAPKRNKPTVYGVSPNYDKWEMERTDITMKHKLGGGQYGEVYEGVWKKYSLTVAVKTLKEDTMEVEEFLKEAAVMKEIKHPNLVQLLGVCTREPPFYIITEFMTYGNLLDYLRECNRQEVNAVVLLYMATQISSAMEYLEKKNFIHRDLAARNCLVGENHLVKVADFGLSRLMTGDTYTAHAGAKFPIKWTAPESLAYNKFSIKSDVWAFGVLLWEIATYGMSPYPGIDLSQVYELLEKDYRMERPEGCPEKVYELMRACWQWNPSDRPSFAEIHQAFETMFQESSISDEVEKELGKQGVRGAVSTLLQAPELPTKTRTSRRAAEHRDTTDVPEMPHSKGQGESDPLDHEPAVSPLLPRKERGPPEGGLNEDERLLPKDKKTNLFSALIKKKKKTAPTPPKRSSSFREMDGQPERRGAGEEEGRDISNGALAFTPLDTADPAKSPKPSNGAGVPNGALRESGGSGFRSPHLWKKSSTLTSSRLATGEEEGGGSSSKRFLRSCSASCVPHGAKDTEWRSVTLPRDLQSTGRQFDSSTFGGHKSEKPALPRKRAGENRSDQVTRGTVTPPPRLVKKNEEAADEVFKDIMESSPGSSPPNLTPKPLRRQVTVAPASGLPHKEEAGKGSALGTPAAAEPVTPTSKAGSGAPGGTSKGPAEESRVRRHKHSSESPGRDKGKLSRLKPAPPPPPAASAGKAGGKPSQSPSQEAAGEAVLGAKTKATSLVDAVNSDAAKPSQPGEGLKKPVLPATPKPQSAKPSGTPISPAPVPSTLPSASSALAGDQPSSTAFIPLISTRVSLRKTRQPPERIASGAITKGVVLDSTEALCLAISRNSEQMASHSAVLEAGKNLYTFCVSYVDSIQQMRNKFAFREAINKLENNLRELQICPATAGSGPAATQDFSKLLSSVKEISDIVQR
Chain of Platelet-derived growth factor receptor beta (P09619 whole entry): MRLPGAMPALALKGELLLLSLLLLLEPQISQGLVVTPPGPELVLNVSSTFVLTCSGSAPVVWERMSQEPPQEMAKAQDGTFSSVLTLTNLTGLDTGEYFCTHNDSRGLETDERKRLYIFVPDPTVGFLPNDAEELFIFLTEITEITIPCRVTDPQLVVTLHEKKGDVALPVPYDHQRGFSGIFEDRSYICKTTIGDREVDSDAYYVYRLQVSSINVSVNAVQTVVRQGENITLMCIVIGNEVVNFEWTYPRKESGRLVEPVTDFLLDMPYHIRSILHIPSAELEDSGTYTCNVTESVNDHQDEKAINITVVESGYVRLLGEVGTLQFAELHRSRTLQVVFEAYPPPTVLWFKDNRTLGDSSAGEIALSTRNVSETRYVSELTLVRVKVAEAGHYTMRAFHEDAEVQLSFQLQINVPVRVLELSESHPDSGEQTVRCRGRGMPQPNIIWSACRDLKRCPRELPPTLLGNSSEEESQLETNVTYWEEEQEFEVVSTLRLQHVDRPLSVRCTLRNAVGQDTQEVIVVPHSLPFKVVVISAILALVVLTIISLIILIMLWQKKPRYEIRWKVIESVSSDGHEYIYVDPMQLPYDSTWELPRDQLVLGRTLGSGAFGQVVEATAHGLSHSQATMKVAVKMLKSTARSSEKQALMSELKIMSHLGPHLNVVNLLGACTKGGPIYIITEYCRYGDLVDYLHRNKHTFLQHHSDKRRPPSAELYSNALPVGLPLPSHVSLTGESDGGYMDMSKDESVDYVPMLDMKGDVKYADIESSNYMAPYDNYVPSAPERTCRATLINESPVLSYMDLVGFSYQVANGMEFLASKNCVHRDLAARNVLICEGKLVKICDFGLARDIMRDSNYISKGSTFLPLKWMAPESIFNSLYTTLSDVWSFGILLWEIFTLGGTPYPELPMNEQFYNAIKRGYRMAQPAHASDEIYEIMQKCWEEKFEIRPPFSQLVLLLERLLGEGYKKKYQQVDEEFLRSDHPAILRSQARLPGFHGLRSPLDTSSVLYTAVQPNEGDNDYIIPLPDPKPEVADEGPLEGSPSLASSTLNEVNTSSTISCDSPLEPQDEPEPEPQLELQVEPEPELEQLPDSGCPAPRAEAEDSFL
Chain of Fibroblast growth factor receptor 1 (P11362 whole entry): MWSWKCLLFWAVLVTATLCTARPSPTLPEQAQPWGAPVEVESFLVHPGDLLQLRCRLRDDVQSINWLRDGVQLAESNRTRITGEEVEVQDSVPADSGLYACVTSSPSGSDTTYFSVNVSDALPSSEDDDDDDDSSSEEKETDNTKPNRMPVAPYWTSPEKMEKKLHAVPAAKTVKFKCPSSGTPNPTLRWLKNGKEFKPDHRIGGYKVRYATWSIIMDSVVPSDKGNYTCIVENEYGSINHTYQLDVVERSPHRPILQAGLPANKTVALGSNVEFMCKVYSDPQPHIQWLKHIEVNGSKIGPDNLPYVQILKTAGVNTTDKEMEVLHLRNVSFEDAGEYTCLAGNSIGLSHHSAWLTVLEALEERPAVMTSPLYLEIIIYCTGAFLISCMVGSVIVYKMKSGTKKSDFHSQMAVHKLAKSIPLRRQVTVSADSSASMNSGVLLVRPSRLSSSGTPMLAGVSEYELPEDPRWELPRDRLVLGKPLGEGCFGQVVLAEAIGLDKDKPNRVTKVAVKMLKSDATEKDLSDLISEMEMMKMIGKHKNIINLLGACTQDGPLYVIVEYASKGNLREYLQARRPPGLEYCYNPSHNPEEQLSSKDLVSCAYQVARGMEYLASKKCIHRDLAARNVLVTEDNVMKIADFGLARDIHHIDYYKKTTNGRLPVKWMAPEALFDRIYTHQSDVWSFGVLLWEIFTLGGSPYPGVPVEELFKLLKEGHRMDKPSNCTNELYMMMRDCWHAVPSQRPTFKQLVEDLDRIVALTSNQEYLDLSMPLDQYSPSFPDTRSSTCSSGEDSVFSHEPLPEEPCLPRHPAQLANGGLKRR
Chain of Serine/threonine-protein phosphatase PP1-alpha catalytic subunit (P62136 whole entry): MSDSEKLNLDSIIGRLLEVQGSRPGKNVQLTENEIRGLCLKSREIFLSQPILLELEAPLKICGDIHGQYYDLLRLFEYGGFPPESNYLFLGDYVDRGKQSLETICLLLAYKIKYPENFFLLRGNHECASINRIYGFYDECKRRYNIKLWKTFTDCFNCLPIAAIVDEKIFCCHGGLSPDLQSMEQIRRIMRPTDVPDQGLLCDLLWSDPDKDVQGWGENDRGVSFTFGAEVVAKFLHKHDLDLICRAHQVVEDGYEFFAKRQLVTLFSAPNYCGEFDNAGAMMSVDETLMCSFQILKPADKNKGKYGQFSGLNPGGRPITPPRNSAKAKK
Chain of Aurora kinase B (Q96GD4 whole entry): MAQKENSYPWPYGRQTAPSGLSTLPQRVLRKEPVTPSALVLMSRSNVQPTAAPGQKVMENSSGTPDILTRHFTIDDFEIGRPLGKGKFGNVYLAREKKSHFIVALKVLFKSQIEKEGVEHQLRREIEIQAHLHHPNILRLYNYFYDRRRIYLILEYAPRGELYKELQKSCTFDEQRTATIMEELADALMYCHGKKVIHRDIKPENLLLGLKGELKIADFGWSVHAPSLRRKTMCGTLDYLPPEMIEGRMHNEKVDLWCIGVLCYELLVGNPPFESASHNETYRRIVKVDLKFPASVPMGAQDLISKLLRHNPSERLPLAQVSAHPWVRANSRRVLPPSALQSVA

As for `CC(=O)N(C1=C(Cl)C(=O)c2ccccc2C1=O)c1ccc(C(=O)O)cc1`, the half-inhibitory concentration (IC50) on SUMO-activating enzyme was 17.3 µM (active).

Take `CC1(C)C=C2C(=NN(c3ccccc3)C(N)=C2C#N)CO1`: the IC50 in experiment [1] was 55.8 µM (not active); at Caspase-3, 1.09 µM (active).

Turning to `Cc1ccc(-c2cc3nc(Br)cnc3[nH]2)cc1`, the Ki in experiment [2] was > 3.98 µM (inactive); in [3], > 3.16 µM (inactive); in [4] it was > 2 µM (inactive); in experiment [5], 0.794 µM (active); on Aurora kinase B, 0.794 µM (active); in experiment [6], > 2 µM (inactive).

For `O=C1C=C(O)c2c(O)cc(O)c(O)c2C1=O`, the EC50 in [7] is 1.07 µM (inconclusive); in [8], 0.899 µM (active). For the same compound, the 50% inhibitory concentration (IC50) at Large T antigen is > 100 µM (active); in [9], > 122 µM (inactive).
